This is an account of results in the supplement of paper PMC6723410.

The first experiment concerns GUMC-403. Description: viability at highest tested concentration (max response) relative to DMSO (% of DMSO control); higher = less cytotoxic. To be noted: library / dose series: MIPE library, 11-point 1:3 dilution; top concentration 23 µM; 48 h. In outline: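 GUMC-403 papilloma cells, derived from a patient and expanded by conditional reprogramming, were dispensed at 700/well into 1536-well plates in 5 μL F + Y medium. A pin tool delivered 23 nL of each compound across an 11-point 1:3 dilution series for 48 h. CellTiter-Glo luminescence, read on a ViewLux, was normalised so that vehicle wells equalled 100% and empty wells 0%. Values report viability at the highest tested concentration relative to vehicle control.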
The compound `Clc1ccc2c(N3CCN(CCCN4CCN(c5ccnc6cc(Cl)ccc56)CC4)CC3)ccnc2c1` returned a viability of 119.

The same experiment, now with this note: library / dose series: MIPE library, 11-point 1:3 dilution; top concentration 46.1 µM; 48 h.
Regarding `O=C(c1ccc(F)c(F)c1Nc1ccc(I)cc1F)N1CC(O)([C@@H]2CCCCN2)C1`, the viability amounted to 52.2. Same read-out and setting: then `COC(=O)[C@@H]1[C@H]2C[C@H]3c4[nH]c5ccccc5c4CCN3C[C@@H]2CC[C@@H]1O`, with 128. Take `N#CC(c1ccnc(NCCc2cccnc2)n1)c1nc2ccccc2s1` (configuration not stated): the viability stood at 108. The compound `CC(C)(N)c1ccc(-c2nc3ccccc3nc2-c2ccccc2)cc1` registered a viability of 116. `OC1=CC2=C(C(=C1)O)C(=O)\C(=C(/O2)C3=CC(=C(O)C(=C3)O)O)O` showed a viability of 102. Compound `CCn1c(-c2nonc2N)nc2cncc(CNC3CCNCC3)c21` yielded a viability of 121. `COC/1=C/C=C2\C(=C/C1=O)[C@H](CCC3=CC(=C(OC)C(=C23)OC)OC)NC(C)=O`: the viability turned out to be 90.8. The compound `CCOC(=O)c1c(/C(C#N)=C\N)c2ccc(Cl)c(Cl)c2n1C` returned a viability of 92.2.

`CC(C)(C)OC(=O)N[C@H]1CCCCC/C=C\[C@@H]2C[C@@]2(C(=O)N[S+](=O)([O-])C2CC2)NC(=O)[C@@H]2C[C@@H](OC(=O)N3Cc4cccc(F)c4C3)CN2C1=O` gave a viability of 138. The compound `CC(C)(F)C[C@H](N[C@@H](c1ccc(-c2ccc([S+](C)(=O)[O-])cc2)cc1)C(F)(F)F)C(=O)NC1(C#N)CC1` returned a viability of 110. Turning to `COc1cc2c(cc1O)CCC1C2CC[C@@]2(C)C1CC[C@@H]2O` (some centres not stated), the viability came to 101.

For `C[C@]12C[C@H](O)[C@H]3[C@@H](CC\C4=C\C(=O)\C=C/[C@]34C)[C@@H]1CC[C@]2(O)C(=O)CO`, the viability is 118. The compound `COc1ccc(-n2nc(C(N)=O)c3c2C(=O)N(c2ccc(N4CCCCC4=O)cc2)CC3)cc1` gave a viability of 146.

In the case of `N[C@@H]1C[C@H]1c1ccccc1`, the viability was 108. As for `OC(CCN1CCCCC1)(C2CC\3CC2\C=C3)C4=CC=CC=C4` (configuration not stated), the viability is 136. Same read-out and setting: then `O=C1c2ccccc2-c2n[nH]c3cccc1c23`, with 99.2. Same read-out and setting: under `C[C@H]1[C@H](O)O[C@@H]2O[C@@]3(C)CC[C@H]4[C@H](C)CC[C@@H]1[C@@]24OO3` stands 90.6; under `CCC[S+]([O-])c1ccc2[nH]c(NC(=O)OC)nc2c1` (configuration not stated), 92.2. `COc1cc2nccc(Oc3ccc(NC(=O)Nc4cc(C)on4)c(Cl)c3)c2cc1OC`: the viability stood at 73.5.

The compound `CN(CCOc1ccc(NS(C)(=O)=O)cc1)CCc1ccc(NS(C)(=O)=O)cc1` yielded a viability of 127. As to `COc1cc([C@H]2Oc3cc([C@H]4Oc5cc(O)cc(O)c5C(=O)[C@@H]4O)ccc3O[C@@H]2CO)ccc1O`, the viability is 83.9. On to `CCCCCNC(=N)N/N=C/c1c[nH]c2ccc(OC)cc12`, for which the viability worked out at 69.6.

Regarding `CCC(C)CCCCC(=O)N[C@@H](CCN)C(=O)NC(C(=O)N[C@H](CCN)C(=O)N[C@@H]1CCNC(=O)C([C@@H](C)O)NC(=O)[C@@H](CCN)NC(=O)[C@@H](CCN)NC(=O)[C@@H](CC(C)C)NC(=O)[C@H](Cc2ccccc2)NC(=O)[C@H](CCN)NC1=O)[C@@H](C)O` (some centres not stated), the viability is 126. The same measure, in the same setting: then `OC1=C(O)C2=C(\C=C/C(=O)O2)C=C1`, with 110; and `CN1C[C@H]2c3ccccc3Oc3ccc(Cl)cc3[C@@H]2C1`, with 91.4. Consider `C=CC[C@@H]1/C=C(\C)C[C@H](C)C[C@H](OC)[C@H]2O[C@@](O)(C(=O)C(=O)N3CCCC[C@H]3C(=O)O[C@H](/C(C)=C/[C@@H]3CC[C@@H](O)[C@H](OC)C3)[C@H](C)[C@@H](O)CC1=O)[C@H](C)C[C@@H]2OC`, for which the viability amounted to 126. Compound `Cc1c(C(=O)NN2CCCCC2)nn(-c2ccc(Cl)cc2Cl)c1-c1ccc(Cl)cc1` came in with a viability of 109. Same read-out and setting: then `CCCCOc1ccc(C(=O)Nc2ccc(F)cc2F)cc1`, with 101. The same measure, in the same setting: under `Cn1cc(/C=C2\C(=O)Nc3cccnc32)c2ccccc21` stands 132. Compound `CCC[C@H](N[C@@H](C)C(=O)N1[C@H](C(=O)O)C[C@@H]2CCCC[C@@H]21)C(=O)OCC` displayed a viability of 120. On to `COc1cc[nH]c2ncc(C(=O)C(=O)N3CCN(C(=O)c4ccccc4)C[C@H]3C)c1-2`, for which the viability came to 134.

Compound `CCn1cc(-c2ccnc3[nH]c(-c4cccc(CN(C)C)c4)cc23)c(-c2ccc(NC(=O)N(C)C)cc2)n1` returned a viability of 54.6. Same read-out and setting: then `C[C@@H]1CCN(C(=O)CC#N)C[C@@H]1N(C)c1ncnc2[nH]ccc12`, with 79.1. In turn, `Nc1ncnc2c1nc(Cl)n2[C@@H]1O[C@H](CO)[C@@H](O)[C@H]1O` returned a viability of 46. On the same count and under the same terms, then `CC(=O)N(C)C1(c2ccccc2)CCN(CCC[C@]2(c3ccc(Cl)c(Cl)c3)CCCN(C(=O)c3ccccc3)C2)CC1`, with 96.7; and `NC(=O)c1cnccn1`, with 131; and `O=C(c1ccc(F)cc1)C1CCN(CCn2c(=O)[nH]c3ccccc3c2=O)CC1`, with 110. Same read-out and setting: under `O=C(O)[C@@H](c1ccc(OCc2ccc3ccccc3n2)cc1)C1CCCC1` stands 108; under `COc1ccc2cc1Oc1ccc(cc1)C[C@H]1c3cc(c(OC)cc3CCN1C)Oc1c(OC)c(OC)cc3c1[C@H](C2)N(C)CC3`, 86. Regarding `C[C@H]1O[C@H]([C@H](O)[C@@H]1O)N2\C=C(F)/C(=O)NC2=O`, the viability came out at 124. `CC[C@@]1(O)C(=O)OCC/2=C1/C=C3\N(CC4=CC5=CC(=CC=C5N=C34)O)C2=O` showed a viability of 42.5. As to `Oc1ccc(OCc2ccccc2)cc1`, the viability was 110.

With `CN1\C=N/C2=CC=C(NC3=CC(=CC=C3C)NC(=O)C4=CC(=CC=C4)C(C)(C)C#N)C=C2C1=O`, the viability was found to be 96.2. On the same count and under the same terms, under `Oc1nc(-c2ccc(C(F)(F)F)cc2)nc2c1CSCC2` stands 86.4; under `O=C(NCC[S+](=O)([O-])c1ccc(C(F)(F)F)cn1)c1ccc(Cl)cc1`, 107. The same measure, in the same setting: under `CCNC(=O)c1cc2c(-c3cc(OCCN4CCCC4)c(Cl)cc3Cl)nc(N)nc2s1` stands 58.2; under `CO[C@H]1/C=C/O[C@@]2(C)Oc3c(C)c(O)c4c(O)c(c5c(nc6cc(C)ccn65)c4c3C2=O)NC(=O)/C(C)=C\C=C\[C@H](C)[C@H](O)[C@@H](C)[C@@H](O)[C@@H](C)[C@H](OC(C)=O)[C@@H]1C`, 133.

With `CNC1CCC(N(Cc2cccc(-c3ccncc3)c2)C(=O)c2sc3ccccc3c2Cl)CC1` (configuration not stated), the viability came out at 110. Still for that read-out and setting: then `CC/1=C(/N2[C@H](SC1)[C@H](NC(=O)[C@H](N)\C3=C\C\C=C/C3)C2=O)C(O)=O`, with 121; and `C[C@H]1O[C@H](O[C@H]2[C@H](O)[C@@H](O)[C@H](O[C@@H]2CO)O[C@H]3[C@H](O)[C@@H](O)C(O)O[C@@H]3CO)[C@H](O)[C@@H](O)[C@@H]1N[C@H]4\C=C(CO)/[C@@H](O)[C@H](O)[C@H]4O` (some centres not stated), with 135.

The experiment is the same for the next values; noted with them: library / dose series: MIPE library, 11-point 1:3 dilution; top concentration 92.2 µM; 48 h.
`CC(C)(Oc1ccc(C2CC2(Cl)Cl)cc1)C(=O)O` (configuration not stated) registered a viability of 101.
